Laboratory results taken from ChEMBL document CHEMBL1909046, “DrugMatrix in vitro pharmacology data”.

Assays:
[1] = DRUGMATRIX: Sodium/nucleoside co-transporter radioligand binding (ligand: nitrobenzylthioinosine); type: cell membranes, Cavia porcellus, Dunkin-Hartley, Cerebral cortex, Membrane; settings: Not Active = under 50% inhibition at 10 µM
[2] = target: Glycine receptor (Rattus norvegicus, UniProt P22771+P24524+P07727+P20781); type: cell membranes, Wistar, Spinal cord, Membrane; also: in other assays of this panel Not Active means under 50% inhibition at 10 µM
[3] = target: T1, D(4) dopamine receptor (Homo sapiens, UniProt P21917); test: DRUGMATRIX: Dopamine D4.2 radioligand binding (ligand: [3H] Spiperone); type: cell membranes, CHO-K1, Membrane; settings: cho-k1; Not Active = under 50% inhibition at 10 µM
T1 sequence (P21917 whole entry): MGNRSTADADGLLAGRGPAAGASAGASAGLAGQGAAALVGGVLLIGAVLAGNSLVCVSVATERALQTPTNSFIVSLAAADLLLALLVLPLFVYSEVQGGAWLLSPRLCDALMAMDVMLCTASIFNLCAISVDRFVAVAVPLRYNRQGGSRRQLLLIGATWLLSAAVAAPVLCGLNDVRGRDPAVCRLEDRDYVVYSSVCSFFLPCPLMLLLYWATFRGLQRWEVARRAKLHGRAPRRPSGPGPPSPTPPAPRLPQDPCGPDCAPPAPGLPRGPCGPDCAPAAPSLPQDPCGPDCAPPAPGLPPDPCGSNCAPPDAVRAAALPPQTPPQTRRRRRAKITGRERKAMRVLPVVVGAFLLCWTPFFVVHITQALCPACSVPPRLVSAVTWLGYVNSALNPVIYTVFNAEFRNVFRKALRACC

[4] = DRUGMATRIX: GABAA, Flunitrazepam, Central radioligand binding (ligand: [3H] Flunitrazepam); type: cell membranes, Rattus norvegicus, Wistar, Brain, Membrane; settings: Not Active = under 50% inhibition at 10 µM
[5] = target: T2, Cytochrome P450 2A6 (Homo sapiens, UniProt P11509); settings: bti-tn-5b1-4; also: in other assays of this panel Not Active means under 50% inhibition at 10 µM
T2 sequence (P11509 whole entry): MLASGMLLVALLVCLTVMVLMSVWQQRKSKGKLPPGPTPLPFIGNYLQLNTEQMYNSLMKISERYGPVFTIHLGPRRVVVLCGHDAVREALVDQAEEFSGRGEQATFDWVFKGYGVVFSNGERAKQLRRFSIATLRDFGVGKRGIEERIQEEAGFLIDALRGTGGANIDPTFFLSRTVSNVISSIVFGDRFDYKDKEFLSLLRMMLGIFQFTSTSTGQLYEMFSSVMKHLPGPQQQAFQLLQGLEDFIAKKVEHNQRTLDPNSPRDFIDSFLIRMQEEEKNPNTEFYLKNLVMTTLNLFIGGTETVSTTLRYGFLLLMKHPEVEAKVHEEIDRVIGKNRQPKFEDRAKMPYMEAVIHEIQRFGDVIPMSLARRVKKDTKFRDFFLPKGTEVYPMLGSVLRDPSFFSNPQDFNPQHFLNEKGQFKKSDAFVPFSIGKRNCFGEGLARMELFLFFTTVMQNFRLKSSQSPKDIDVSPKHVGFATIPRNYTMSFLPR

[6] = target: Sigma non-opioid intracellular receptor 1 (Homo sapiens, UniProt Q99720); test: DRUGMATRIX: Sigma1 radioligand binding (ligand: [3H] Haloperidol); type: cell membranes, Jurkat, Membrane; settings: jurkat; Not Active = under 50% inhibition at 10 µM
[7] = target: T3, B2 bradykinin receptor (Homo sapiens, UniProt P30411); type: cell membranes, Membrane; settings: chem-1; also: in other assays of this panel Not Active means under 50% inhibition at 10 µM
T3 sequence (P30411 whole entry): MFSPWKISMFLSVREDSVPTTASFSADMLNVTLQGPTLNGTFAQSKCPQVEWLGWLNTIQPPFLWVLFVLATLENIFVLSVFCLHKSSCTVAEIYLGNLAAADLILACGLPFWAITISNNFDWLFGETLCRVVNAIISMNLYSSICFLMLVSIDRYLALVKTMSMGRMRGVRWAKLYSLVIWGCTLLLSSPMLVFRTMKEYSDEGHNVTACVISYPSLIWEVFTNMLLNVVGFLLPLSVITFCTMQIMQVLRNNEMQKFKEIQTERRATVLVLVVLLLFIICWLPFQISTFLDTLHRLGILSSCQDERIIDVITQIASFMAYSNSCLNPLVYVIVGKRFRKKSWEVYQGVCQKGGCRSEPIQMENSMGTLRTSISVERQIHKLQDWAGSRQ

[8] = target: T4, Type-2 angiotensin II receptor (Homo sapiens, UniProt P50052); type: cell-based; settings: cho-k1; also: in other assays of this panel Not Active means under 50% inhibition at 10 µM
T4 sequence (P50052 whole entry): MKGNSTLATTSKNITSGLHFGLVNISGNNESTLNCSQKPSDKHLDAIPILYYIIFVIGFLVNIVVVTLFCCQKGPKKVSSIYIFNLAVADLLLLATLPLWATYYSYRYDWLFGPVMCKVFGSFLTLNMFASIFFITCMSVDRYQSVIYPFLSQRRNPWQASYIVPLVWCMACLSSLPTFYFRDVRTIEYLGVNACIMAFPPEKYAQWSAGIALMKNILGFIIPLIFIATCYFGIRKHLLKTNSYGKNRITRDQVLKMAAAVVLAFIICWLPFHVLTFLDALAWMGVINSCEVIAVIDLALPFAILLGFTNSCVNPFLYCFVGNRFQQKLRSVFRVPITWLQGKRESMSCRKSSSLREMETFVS

[9] = target: T5, Alpha-1D adrenergic receptor (Homo sapiens, UniProt P25100); type: cell membranes, HEK293, Membrane; settings: hek293; also: in other assays of this panel Not Active means under 50% inhibition at 10 µM
T5 sequence (P25100 whole entry): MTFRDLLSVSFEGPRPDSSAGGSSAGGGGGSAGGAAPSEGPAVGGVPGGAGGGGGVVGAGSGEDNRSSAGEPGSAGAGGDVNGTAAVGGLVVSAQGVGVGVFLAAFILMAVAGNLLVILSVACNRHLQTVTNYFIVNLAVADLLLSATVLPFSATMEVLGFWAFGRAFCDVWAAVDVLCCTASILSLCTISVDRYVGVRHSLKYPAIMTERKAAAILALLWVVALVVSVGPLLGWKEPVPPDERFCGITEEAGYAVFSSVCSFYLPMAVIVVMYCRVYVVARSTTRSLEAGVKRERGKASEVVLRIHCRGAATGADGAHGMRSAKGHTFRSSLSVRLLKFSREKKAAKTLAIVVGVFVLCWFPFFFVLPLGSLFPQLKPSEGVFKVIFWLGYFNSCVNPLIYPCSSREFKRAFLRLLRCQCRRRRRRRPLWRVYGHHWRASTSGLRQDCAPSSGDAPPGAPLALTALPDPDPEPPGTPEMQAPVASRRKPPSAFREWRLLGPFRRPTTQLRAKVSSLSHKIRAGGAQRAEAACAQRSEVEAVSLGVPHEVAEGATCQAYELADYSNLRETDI

Sigma non-opioid intracellular receptor 1, sequence (Q99720 whole entry): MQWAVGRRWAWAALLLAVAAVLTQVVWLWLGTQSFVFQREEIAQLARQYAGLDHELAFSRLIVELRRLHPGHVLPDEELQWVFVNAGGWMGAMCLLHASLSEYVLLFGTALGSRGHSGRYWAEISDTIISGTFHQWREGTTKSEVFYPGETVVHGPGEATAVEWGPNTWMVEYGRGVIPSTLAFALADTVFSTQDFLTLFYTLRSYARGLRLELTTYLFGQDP

CC[C@H]1OC(=O)[C@H](C)[C@@H](O[C@H]2C[C@@](C)(OC)[C@@H](O)[C@H](C)O2)[C@H](C)[C@@H](O[C@@H]2O[C@H](C)C[C@H](N(C)C)[C@H]2O)[C@](C)(O)C[C@@H](C)/C(=N\OCOCCOC)[C@H](C)[C@@H](O)[C@]1(C)O [ROXITHROMYCIN]
Not Active: IC50 [1] | Ki [1] | IC50 [2] | IC50 [3] | IC50 [4] | Ki [4] | IC50 [5] | Ki [5] | IC50 [6] | IC50 [7] | IC50 [8] | IC50 [9]

NC(=O)c1ccccc1O [SALICYLAMIDE]
Not Active: IC50 [1] | Ki [1] | IC50 [2] | IC50 [3] | IC50 [4] | Ki [4] | IC50 [5] | Ki [5] | IC50 [6] | IC50 [7] | IC50 [8] | IC50 [9]

Cc1ncc([N+](=O)[O-])n1CC(C)O (configuration not stated) [SECNIDAZOLE]
Not Active: IC50 [1] | Ki [1] | IC50 [2] | IC50 [3] | IC50 [4] | Ki [4] | IC50 [5] | Ki [5] | IC50 [6] | IC50 [7] | IC50 [8] | IC50 [9]

CC(=O)S[C@@H]1CC2=CC(=O)CC[C@]2(C)[C@H]2CC[C@@]3(C)[C@@H](CC[C@@]34CCC(=O)O4)[C@H]12 [SPIRONOLACTONE]
Not Active: IC50 [1] | Ki [1] | IC50 [2] | IC50 [3] | IC50 [4] | Ki [4] | IC50 [5] | Ki [5] | IC50 [6] | IC50 [7] | IC50 [8] | IC50 [9]

C[C@]12Cc3c[nH]nc3C[C@@H]1CC[C@@H]1[C@@H]2CC[C@@]2(C)[C@H]1CC[C@]2(C)O [STANOZOLOL]
Not Active: IC50 [1] | Ki [1] | IC50 [2] | IC50 [3] | IC50 [4] | Ki [4] | IC50 [5] | Ki [5] | IC50 [6] | IC50 [7] | IC50 [8] | IC50 [9]

CN(N=O)C(=O)N[C@@H](C=O)[C@@H](O)[C@H](O)[C@H](O)CO [STREPTOZOCIN]
Not Active: IC50 [1] | Ki [1] | IC50 [2] | IC50 [3] | IC50 [4] | Ki [4] | IC50 [5] | Ki [5] | IC50 [6] | IC50 [7] | IC50 [8] | IC50 [9]

Cc1cc(NS(=O)(=O)c2ccc(N)cc2)no1 [SULFAMETHOXAZOLE]
Not Active: IC50 [1] | Ki [1] | IC50 [2] | IC50 [3] | IC50 [4] | Ki [4] | IC50 [5] | Ki [5] | IC50 [6] | IC50 [7] | IC50 [8] | IC50 [9]

Nc1ccc(S(N)(=O)=O)cc1 [SULFANILAMIDE]
Not Active: IC50 [1] | Ki [1] | IC50 [2] | IC50 [3] | IC50 [4] | Ki [4] | IC50 [5] | Ki [5] | IC50 [6] | IC50 [7] | IC50 [8] | IC50 [9]

Nc1ccc(S(=O)(=O)Nc2ccnn2-c2ccccc2)cc1 [SULFAPHENAZOLE]
Not Active: IC50 [1] | Ki [1] | IC50 [2] | IC50 [3] | IC50 [4] | Ki [4] | IC50 [5] | Ki [5] | IC50 [6] | IC50 [7] | IC50 [8] | IC50 [9]

C=CC[C@@H]1/C=C(\C)C[C@H](C)C[C@H](OC)[C@H]2O[C@@](O)(C(=O)C(=O)N3CCCC[C@H]3C(=O)O[C@H](/C(C)=C/[C@@H]3CC[C@@H](O)[C@H](OC)C3)[C@H](C)[C@@H](O)CC1=O)[C@H](C)C[C@@H]2OC [TACROLIMUS ANHYDROUS]
Not Active: IC50 [1] | Ki [1] | IC50 [2] | IC50 [3] | IC50 [4] | Ki [4] | IC50 [5] | Ki [5] | IC50 [6] | IC50 [7] | IC50 [8] | IC50 [9]

CC1CN(c2cc3c(cc2F)c(=O)c(C(=O)O)cn3-c2ccc(F)cc2F)CCN1 (configuration not stated) [TEMAFLOXACIN]
Not Active: IC50 [1] | Ki [1] | IC50 [2] | IC50 [3] | IC50 [4] | Ki [4] | IC50 [5] | Ki [5] | IC50 [6] | IC50 [7] | IC50 [8] | IC50 [9]
